“Also recorded” adds a separate entry of the source.

Common to all, as to format: cell-based
Assay [1] deals with PSMA. The experiment in a line: Surface immunofluorescence of PSMA. Particulars: MDCK-PSMA cells treated with nocodazole; data not shown. As for the experimental part:
(§1) MDCK cells (clone II) were obtained from the ATCC (Manassas, Va.) and cultured in DMEM (Gibco BRL, Rockville, Md.) supplemented with 10% FBS, 2 mM L-glutamine, 25 units/ml penicillin, 25 μg/ml streptomycin, and 100 μM non-essential amino acids. Cells were grown at 37° C. in a humidified incubator with 5% CO2. Cells were treated for 10 hours with 10 mM sodium butyrate to enhance PSMA expression. For experiments involving inhibition of N-glycosylation or microtubule depolymerization, cells were treated for 3 hours with 5 μg/ml tunicamycin (Sigma, St. Louis, Mo.) or 4 μg/ml nocodazole (Sigma), or 2 μM vinblastine, vincristine, or vinorelbine (Sigma) in DMEM at 37° C. prior to the indicated experiment, unless otherwise noted.
For cell surface staining, MDCK cells were grown on transwell filters and the transepithelial electrical resistance (TER) was determined using an EVOM Epithelial Voltohmeter (World Precision Instruments, Sarasota, Fla.). […]
Confocal microscopy was performed using a Fluoview laser scanning confocal microscope (Olympus America, Melville, N.Y.) as described (25). To detect FITC and propidium iodide, samples were excited with krypton and argon lasers and light emitted between 525 and 540 nm was recorded for FITC and above 630 nm for propidium iodide. Images were generated and analyzed using the Fluoview image analysis software, version 2.1.39 (Olympus America).

The subject of assay [2] is PSMA. The experiment in a line: Antibody internalization trafficking assay (pulse-chase with mAb J591 in apical or basolateral chamber). Particulars: MDCK-PSMA cells pulsed and chased in the presence of nocodazole (three hours); FIG. 5C. The protocol:
as §1
Confluent monolayers of MDCK-PSMA cells on transwell filters were rinsed twice and incubated for 30 minutes in starving media [cystine/methionine free DMEM (CellGro, Herndon, Va.)] supplemented with 0.2% BSA. […]
For the antibody internalization trafficking assay, MDCK cells were metabolically labeled and chased in DMEM containing 5 μg/ml of mAb J591 added to either the apical or basolateral chamber. […] The relative amount of PSMA for each was calculated as a percentage of the total amount of labeled PSMA precipitated throughout the course of the experiment, as quantified by densitometry.

A further assay deals with Na,K-ATPase. The experiment in a line: Cell surface biotinylation / immunoblot of basolateral marker Na,K-ATPase. Particulars: MDCK-PSMA cells treated with nocodazole; FIG. 5B. The protocol: as §1
(§2) MDCK cells were grown to confluence on transwell filters, as determined by TER, and biotinylation of the apical or basolateral surface was performed as described (25). […]
Samples were separated on 10% SDS polyacrylamide gels and transferred to nitrocellulose. […] After washing three times in PBST and once in PBS, bound antibody was detected by peroxidase-catalyzed ECL-Plus (Amersham, Buckinghamshire, UK). Densitometric analysis and quantification of bands was performed using ImageQuant software (Molecular Dynamics, Sunnyvale, Calif.).

The test system of assay [3] is PSMA. The experiment in a line: Selective cell surface biotinylation assay of PSMA at apical or basolateral plasma membrane. The protocol: as §1, §2
Samples were separated on 10% SDS polyacrylamide gels and transferred to nitrocellulose. […] After washing three times in PBST and once in PBS, bound antibody was detected by peroxidase-catalyzed ECL-Plus (Amersham, Buckinghamshire, UK). Densitometric analysis and quantification of bands was performed using ImageQuant software (Molecular Dynamics, Sunnyvale, Calif.). […]

Assay [4] has as its system MDCK-PSMA cells. The experiment in a line: Post-Golgi analysis assay: co-localization of PSMA and Na,K-β-GFP vesicles after 20° C. block. The conditions noted are these: data not shown. The protocol: MDCK-PSMA cells transiently transfected to express Na,K-β-GFP were grown on glass coverslips and treated with nocodazole or tunicamycin. Cells were incubated for 6 hours at 20° C. to accumulate newly synthesized protein in the Golgi and TGN, subsequently transferred to 37° C. for 30 minutes, and subject to immunofluorescence analysis as described above. Laser scanning confocal microscopy was performed using a Zeiss Axiovert 200 inverted microscope (Carl Zeiss, Inc, Thornwood, N.Y.). Samples were excited with Argon and Helium/Neon lasers and single channel images were generated and analyzed using the Zeiss LSM 510 Meta imaging system (Carl Zeiss, Inc.) by recording light emitted between 505 and 543 nm for GFP and above 560 nm for CY3.

Another assay deals with microtubule cytoskeleton. The experiment in a line: Immunofluorescence analysis of alpha-tubulin (microtubule integrity). The conditions noted are these: MDCK-PSMA cells, 2 μM drug, 3 hours; FIG. 6B-D. The protocol:
as §1
Tissue sections and MDCK cells were fixed in cold methanol at −20° C. for 30 minutes. Following fixation, specimens were placed in humidified chambers, washed with phosphate buffered saline containing 0.1 mM CaCl2 and 1 mM MgCl2 and 0.5% bovine serum albumin (PBS-CM-BSA), incubated 1 hour with primary antibody, washed with PBS-CM-BSA, incubated 30 minutes in secondary antibody, washed with PBS-CM-BSA, rinsed with distilled water, and mounted in Vectashield (Vector, Burlingame, Calif.).

Assay [5] has as its system MDCK-PSMA cells. The experiment in a line: Domain specific internalization assay of J591. The conditions noted are these: MDCK-PSMA monolayers, 2 μM drug 3 hours; for J591 uptake from the apical surface after drug treatment: then 5 μg/ml J591 30 minutes in apical chamber, FIG. 6F-H; for J591 internalization from the basolateral surface after drug treatment: then 5 μg/ml J591 30 minutes in basolateral chamber, FIG. 6J-L. As for the experimental part:
MDCK-PSMA cells were grown on […] pore size polycarbonate transwell filters (Corning, Corning, N.Y.) and grown to confluence as measured by transepithelial electrical resistance (TER) using an EVOM Epithelial Voltometer (World Precision Instruments, Sarasota, Fla.). Values were normalized for the area of the filter after subtracting the background resistance of a filter without cells. TER of 220-250Ω·cm^2 is indicative of the presence of functional tight junctions (24). Cells were treated with 2 μM of vinblastine, vincristine, or vinorelbine at 37° C. for 3 hours and subsequently incubated at 37° C. for 30 minutes in the presence of the indicated drug and 5 μg/ml of J591 added to either the apical or basolateral chamber. Cells were rinsed in PBS-CM, fixed, and subject to immunofluorescence analysis with FITC-conjugated secondary antibody. Single channel digital microscopic images were collected with an Olympus AX70 upright microscope using identical exposure parameters and analyzed with SPOT imaging software, version 4.0.4 (Diagnostic Instruments, Inc., Sterling Heights, Mich.).

On to `COC(=O)Nc1nc2cc(C(=O)c3cccs3)ccc2[nH]1` [nocodazole, methyl[5-(2-thienyl-carbonyl)-1H-benzimidazol-2-yl]-carbamate], for which, in the assay with PSMA [1], the “PSMA expression at the basolateral plasma membrane relative to untreated cells” value is recorded as “increased PSMA expression at the basolateral plasma membrane”. In the assay with PSMA [2], the “radiolabeled PSMA precipitated with J591 in apical versus basolateral chamber (polarized delivery of PSMA)” value is listed as “equivalent levels; also recorded: abolished”. In addition, in the assay on Na,K-ATPase, the “polarity of the basolateral marker Na,K-ATPase” value is on record as “unaffected”. In addition, in the assay on PSMA [3] (MDCK-PSMA cells treated with nocodazole (4 μg/ml, 3 hours), FIG. 5A), the “distribution of surface PSMA between apical and basolateral plasma membrane” value is “homogeneous distribution”. In addition, the “co-localization of PSMA and Na,K-β-GFP in post-Golgi vesicles” value in the assay on MDCK-PSMA cells [4] (in the presence of nocodazole, after release from 20° C. block) is recorded as “did not show an increased co-localization”.

Turning to `CC[C@]1(O)C[C@@H]2CN(CCc3c([nH]c4ccccc34)[C@@](C(=O)OC)(c3cc4c(cc3OC)N(C)[C@H]3[C@@](O)(C(=O)OC)[C@H](OC(C)=O)[C@]5(CC)C=CCN6CC[C@]43[C@@H]65)C2)C1` [vinblastine], in the assay with microtubule cytoskeleton, the “depolymerization of the microtubule cytoskeleton” value (“depolymerization” for short) is “Extensive microtubule depolymerization”. For the same molecule, in the assay with MDCK-PSMA cells [5], the “J591 uptake from the apical surface after drug treatment” value (“J591 uptake from the apical surface” for short) is recorded as “also taken up from the apical surface” and the “J591 internalization from the basolateral surface after drug treatment” value (from here on “J591 internalization”) is reported as “dramatic increase”.

`CC[C@]1(O)C[C@H]2CN(CCc3c([nH]c4ccccc34)[C@@](C(=O)OC)(c3cc4c(cc3OC)N(C=O)[C@H]3[C@@](O)(C(=O)OC)[C@H](OC(C)=O)[C@]5(CC)C=CCN6CC[C@]43[C@@H]65)C2)C1` [vincristine]: the “depolymerization” value with microtubule cytoskeleton is recorded as “Extensive microtubule depolymerization”. In the assay on MDCK-PSMA cells [5], the “J591 uptake from the apical surface” value is “also taken up from the apical surface” and the “J591 internalization” value is “dramatic increase”.

`CCC1=C[C@@H]2CN(C1)Cc1c([nH]c3ccccc13)[C@@](C(=O)OC)(c1cc3c(cc1OC)N(C)[C@H]1[C@@](O)(C(=O)OC)[C@H](OC(C)=O)[C@]4(CC)C=CCN5CC[C@]31[C@@H]54)C2` [vinorelbine]: in the assay on microtubule cytoskeleton, the “depolymerization” value was “Extensive microtubule depolymerization”. For the same molecule, in the assay on MDCK-PSMA cells [5], the “J591 uptake from the apical surface” value is given as “also taken up from the apical surface” and the “J591 internalization” value was “dramatic increase”.

Turning to tunicamycin, the “distribution of surface PSMA between apical and basolateral plasma membrane” value in the assay with PSMA [3] (MDCK-PSMA cells metabolically labeled in the presence of tunicamycin (10 μg/ml, 4 hours), FIG. 4) is “equivalent levels at both plasma membrane surfaces”. In addition, the “level of co-localization of post-Golgi vesicles containing PSMA and Na,K-ATPase” value in the assay on MDCK-PSMA cells [4] (MDCK-PSMA cells incubated with tunicamycin, 20° C. block then 37° C., 38/88 vesicles) is listed as “approximately 43%”.

These data come from patent US20070237712A1, “Methods of Redistributing Apical Target Antigens to Detect and Treat Cellular Proliferative Disease” (priority 2004, published 2007).
